Reference: ChEMBL document CHEMBL3120101, “Synthesis, biological evaluation, hydration site thermodynamics, and chemical reactivity analysis of α-keto substituted peptidomimetics for the inhibition of Plasmodium falciparum” (Bioorg Med Chem Lett, 2014)

What was measured:
Falcipain 2 = target: T1, Falcipain 2 (Plasmodium falciparum, UniProt Q9N6S8); test: Inhibition of Plasmodium falciparum cysteine protease falcipain-2
T1 sequence (Q9N6S8 whole entry): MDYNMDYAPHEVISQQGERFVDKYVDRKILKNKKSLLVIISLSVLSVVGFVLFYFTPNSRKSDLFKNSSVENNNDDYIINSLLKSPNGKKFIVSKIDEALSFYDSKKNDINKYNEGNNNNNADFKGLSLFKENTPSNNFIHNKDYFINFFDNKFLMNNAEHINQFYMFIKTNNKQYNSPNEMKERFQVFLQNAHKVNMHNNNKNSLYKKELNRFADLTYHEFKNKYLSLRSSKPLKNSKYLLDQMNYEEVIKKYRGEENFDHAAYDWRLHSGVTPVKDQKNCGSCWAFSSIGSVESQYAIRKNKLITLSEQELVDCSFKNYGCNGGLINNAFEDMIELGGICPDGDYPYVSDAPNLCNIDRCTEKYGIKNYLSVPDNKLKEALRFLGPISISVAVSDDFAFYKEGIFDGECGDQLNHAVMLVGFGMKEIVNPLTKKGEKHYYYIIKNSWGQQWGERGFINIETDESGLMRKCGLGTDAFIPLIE

Plasmodium falciparum = test: Antimicrobial activity against chloroquine-resistant Plasmodium falciparum W2 assessed as growth inhibition; assay type: functional, organism-based
[1] = target: T2, Cysteine protease falcipain-3 (Plasmodium falciparum, UniProt Q9NAW4); test: Inhibition of Plasmodium falciparum cysteine protease falcipain-3
T2 sequence (Q9NAW4 whole entry): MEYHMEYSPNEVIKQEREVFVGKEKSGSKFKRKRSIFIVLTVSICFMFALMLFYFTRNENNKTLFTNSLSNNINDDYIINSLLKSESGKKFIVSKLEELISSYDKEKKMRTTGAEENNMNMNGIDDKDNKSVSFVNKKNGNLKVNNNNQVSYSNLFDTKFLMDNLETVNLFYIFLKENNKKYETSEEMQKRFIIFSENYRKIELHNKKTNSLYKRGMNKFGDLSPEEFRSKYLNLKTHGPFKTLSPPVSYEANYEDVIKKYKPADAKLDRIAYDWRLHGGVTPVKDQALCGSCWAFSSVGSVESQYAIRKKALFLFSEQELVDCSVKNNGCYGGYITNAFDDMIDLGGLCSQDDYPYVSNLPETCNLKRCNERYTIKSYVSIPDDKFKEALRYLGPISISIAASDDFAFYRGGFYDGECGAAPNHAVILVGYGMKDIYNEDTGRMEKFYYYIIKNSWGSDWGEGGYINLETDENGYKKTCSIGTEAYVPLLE

SMILES	IC50 (Falcipain 2) [µM]	IC50 (Plasmodium falciparum) [µM]	IC50 [1] [µM]
O=C(CSCCCc1ccccc1)[C@H](CCc1ccccc1)NC(=O)[C@@H]1CCCN1C(=O)OCc1ccccc1	48.1	13.8	> 50
O=C(N[C@H]1CCCC[C@H]1C(=O)N[C@@H](CCc1ccccc1)C(=O)CO)OCc1ccccc1	5.52	> 50	0.54
CC(=O)SCC(=O)[C@H](CCc1ccccc1)NC(=O)[C@@H]1C[C@@H](O)CN1C(=O)OCc1ccccc1	> 50	18.6	3.56
O=C(N[C@@H](CCc1ccccc1)C(=O)N[C@@H](CCc1ccccc1)C(=O)CO)OCc1ccccc1	30.1	37.2	11.9
CC(=O)OCC(=O)[C@H](CCc1ccccc1)NC(=O)C1(NC(=O)OCc2ccccc2)CCSCC1	33.9	> 50	> 50
O=C1CCC(NC(=O)OCc2ccccc2)(C(=O)N[C@@H](CCc2ccccc2)C(=O)CO)CC1	> 50	23.3	47.2
O=C(CN1CCOCC1)[C@H](CCc1ccccc1)NC(=O)[C@@H]1C[C@@H](O)CN1C(=O)OCc1ccccc1	> 50	10.2	> 50
O=C(N[C@@H]1CCCC[C@@H]1C(=O)N[C@@H](CCc1ccccc1)C(=O)CO)OCc1ccccc1	4.42	47.6	0.91
O=C(NC1(C(=O)N[C@@H](CCc2ccccc2)C(=O)CO)CCSCC1)OCc1ccccc1	3.25	28.2	8.22
CC(=O)OCC(=O)[C@H](CCc1ccccc1)NC(=O)C1C2C=CC(C2)C1NC(=O)OCc1ccccc1 (stereo partly specified)	> 50	> 50	> 50
O=C(CSCCCc1ccccc1)[C@H](CCc1ccccc1)NC(=O)[C@@H]1C[C@@H](O)CN1C(=O)OCc1ccccc1	1.1	19.6	0.52
O=C(N[C@H]1CCC[C@H]1C(=O)N[C@@H](CCc1ccccc1)C(=O)CO)OCc1ccccc1	> 50	> 50	23.9
CC(=O)OCC(=O)[C@H](CCc1ccccc1)NC(=O)[C@@H]1COC(C)(C)N1C(=O)OCc1ccccc1	> 50	> 50	> 50
O=C(N[C@H]1CC=CC[C@H]1C(=O)N[C@@H](CCc1ccccc1)C(=O)CO)OCc1ccccc1	> 50	> 50	20.2
O=C(NC1C2C=CC(C2)C1C(=O)N[C@@H](CCc1ccccc1)C(=O)CO)OCc1ccccc1 (stereo partly specified)	33.6	47.2	25.4
O=C(CO)[C@H](CCc1ccccc1)NC(=O)[C@@H]1Cc2ccccc2CN1C(=O)OCc1ccccc1	> 50	> 50	> 50
CC(=O)OCC(=O)[C@H](CCc1ccccc1)NC(=O)[C@H](CCc1ccccc1)NC(=O)OCc1ccccc1	29.7	> 50	> 50
O=C(CO)[C@H](CCc1ccccc1)NC(=O)[C@@H]1C[C@@H](O)CN1C(=O)OCc1ccccc1	0.08	7.7	0.06
CC1(C)OC[C@@H](C(=O)N[C@@H](CCc2ccccc2)C(=O)CO)N1C(=O)OCc1ccccc1	> 50	> 50	> 50
CC(=O)OCC(=O)[C@H](CCc1ccccc1)NC(=O)[C@@H]1Cc2ccccc2CN1C(=O)OCc1ccccc1	> 50	> 50	> 50
O=C(CO)[C@H](CCc1ccccc1)NC(=O)[C@@H]1CCCN1C(=O)OCc1ccccc1	> 50	> 50	> 50
CC(=O)SCC(=O)[C@H](CCc1ccccc1)NC(=O)[C@@H]1CCCN1C(=O)OCc1ccccc1	> 50	18.1	36.4
